In patent US9615580B2, “Fused heterocyclic compound and use thereof for pest control” (Sumitomo Chemical Company, Limited, priority 2012, dated 2017):

Assays:
Assay type in all cases: in vivo
[1] = test system: Aphis gossypii; test: Test Example 1: foliar spray on cucumber seedling inoculated with Aphis gossypii; settings: 144 h, 500 ppm active ingredient, 20 ml sprayed on cucumber seedling, 6 days after spraying
Description: On the other hand, on a cucumber seedling (the first true leaf stage) planted in a plastic cup was inoculated with about 30 Aphis gossypii (whole stage), and leaving it for a day. Twenty (20) ml of each test solution was sprayed on the seedling. Six (6) days after spraying, the number of the surviving Aphis gossypii parasitized on the leaves of the cucumber was examined, and a control value was calculated according to the following equation: Controlling value (%)={1−(Cb×Tai)/(Cai×Tb)}×100 wherein the symbols in the above equation represent as follows: Cb: the number of insects in a non-treated section before treatment Cai: the number of insects in a non-treated section on observation Tb: the number of insects in a treated section before treatment Tai: the number of insects in a […] the non-treated section represents a section where the test diluted solution prepared by diluting the formulation without the present compound as in Formulation Example 5 with the same amount of water as in the treated-section was used.

[2] = test system: Nilaparvata lugens; test: Test Example 4: soil drench of rice seedling, Nilaparvata lugens larvae released; settings: 144 h, 5 ml drench at foot of rice seedling, larvae released after 7 days, counted 6 days later
Description: On the other hand, a rice seedling (2 weeks after sowing, the second leaf stage) planted in a plastic cup was drenched at its foot with 5 ml of each test solution, and kept in a greenhouse of 25° C. for 7 days. Twenty (20) third-fourth instar larvae of Nilaparvata lugens were released, and further kept in the greenhouse for 6 days, then the number of insect of living Nilaparvata lugens parasitized on the rice was examined, and a control value was calculated according to the following equation: Controlling value (%)={1−(Cb×Tai)/(Cai×Tb)}×100 wherein the symbols in the above equation represent as follows: Cb: the number of insects in a non-treated section before treatment Cai: the number of insects in a non-treated section on observation Tb: the number of insects in a treated section before treatment Tai: the number of insects in a […] the non-treated section represents a section where the test diluted solution prepared by diluting the formulation without the present compound as in Formulation Example 5 with the same amount of water as in the treated-section was used.

[3] = test system: Plutella xylostella; test: Test Example 6: spray on cabbage, Plutella xylostella larvae released; settings: 120 h, 20 mL/cup sprayed on cabbage, second instar larvae, 25° C., 5 days, read-out: death rate
Description: Each test solution was prepared by diluting a formulation containing any of the present compounds 1-4, 1-5, 1-6, 1-8, 1-9, 1-10, 1-16, 1-18, 1-19, 1-20, 1-29, 1-46, 1-48, 1-49, 1-50, 1-63 and 1-76 as obtained in Formulation Example 5, with water so as to give 500 ppm of the concentration of the active ingredient.
On the other hand, Cabbage (the third leaf stage) planted in a polyethylene cup was sprayed with 20 mL/cup of each test solution. After the test solution was dried, the aerial part was cut off, and then placed in a 50 mL volume cup. Five (5) second instar larvae of Plutella xylostella were released into the cup, and the cup was sealed with a lid. After the cup was kept at 25° C. for 5 days, the number of living insects was counted. A death rate was calculated according to the following equation: Death rate (%)=(Number of dead insects/Number of tested insects)×100

[4] = test system: Musca domestica; test: Test Example 8: treated filter paper with sucrose bait, Musca domestica; settings: 500 ppm, 0.7 ml on filter paper, female imagoes, after 24 hours
Description: Each test solution was prepared by diluting a formulation containing any of the present compounds 1-4, 1-6, 1-8, 1-9, 1-10, 1-63 and 1-95 as obtained in Formulation Example 5, with water so as to give 500 ppm of the concentration of the active ingredient.
(§1) A filter paper having a diameter of 5.5 cm was spread on the bottom of a polyethylene cup having a diameter of 5.5 cm and each test solution (0.7 ml) was added dropwise onto the filter paper. As a bait sucrose (30 mg) was uniformly placed on the filter paper. Into the polyethylene cup, 10 female imagoes of Musca domestica were released and the cup was sealed with a lid. After 24 hours, the number of surviving Musca domestica was examined and the death rate of the pest was calculated according to the following equation: Death rate (%)=(Number of dead insects/Number of tested insects)×100

[5] = test system: Nilaparvata lugens; test: Test Example 3: spray on rice seedling, Nilaparvata lugens larvae released; settings: 144 h, 10 ml sprayed on rice seedling, third-fourth instar larvae, after 6 days
Description: On the other hand, a rice seedling (the second leaf stage) planted in a polyethylene cup was sprayed with 10 ml of each test solution. After air-drying, 20 third-fourth instar larvae of Nilaparvata lugens were released, and kept in the greenhouse of 25° C. After 6 days, the number of insect of living Nilaparvata lugens parasitized on the rice was examined, and a control value was calculated according to the following equation: Controlling value (%)={1−(Cb×Tai)/(Cai×Tb)}×100 wherein the symbols in the above equation represent as follows: Cb: the number of insects in a non-treated section before treatment Cai: the number of insects in a non-treated section on observation Tb: the number of insects in a treated section before treatment Tai: the number of insects in a […] the non-treated section represents a section where the test diluted solution prepared by diluting the formulation without the present compound as in Formulation Example 5 with the same amount of water as in the treated-section was used.

[6] = test system: Laodelphax striatella; test: Test Example 12: spray on rice seedling, Laodelphax striatella larvae released; settings: 50 ppm, 10 ml sprayed on rice seedling, third instar larvae, after 5 days; method equation is a death rate
Description: (§2) Any of the present compounds 1-6, 1-8, 1-9 and 1-10 (10 mg) was dissolved in a mixed solution (0.1 ml) of xylene, DMF and Sorpol® 3005X (manufactured by Toho Chemical Industry Co., Ltd.) in a ratio of 4:4:1 to obtain a formulation. Each formulation was diluted with water so as to give 50 ppm of the concentration of the active ingredient.
(§3) On the other hand, a rice seedling (2.5 leaf stage) planted in a polyethylene cup was sprayed with 10 ml of each test solution. After air-drying the seedling, 10 third instar larvae of Laodelphax striatella were released, and kept in the greenhouse of 25° C. After 5 days, the number of living insects was counted. A death rate was calculated according to the following equation: Death rate (%)={10−(Number of living insects after 5 days)/10}×100

[7] = test system: Sogatella furcifera; test: Test Example 13: spray on rice seedling, Sogatella furcifera larvae released; settings: 50 ppm, 10 ml sprayed on rice seedling, third instar larvae, after 5 days; method equation is a death rate
Description: as §2
as §3, with “Sogatella furcifera” for “Laodelphax striatella”, “days)/10}×100 As a result, in the treated-section using each test solution containing each of the present compounds 1-6, 1-8, 1-9 and 1-10, the control value was 100%.” for “days)/10}×100”

[8] = test system: Blattalla germanica; test: Test Example 9: treated filter paper with sucrose bait, Blattalla germanica; settings: 500 ppm, 0.7 ml on filter paper, male imagoes, after 6 hours
Description: Each test solution was prepared by diluting a formulation containing any of the present compounds 1-9 and 1-19 as obtained in Formulation Example 5, with water so as to give 500 ppm of the concentration of the active ingredient.
as §1, with “Sucrose (30 mg) as” for “As”, “bait” for “bait sucrose (30 mg)”, “2 male” for “10 female”, “Blattalla germanica” for “Musca domestica”, “6” for “24”

Structure (SMILES)	pest or weed control at 500 ppm [1] [%]	pest or weed control at 500 ppm [2] [%]	pest or weed control at 500 ppm [3] [%]	death rate [4] [%]	pest or weed control at 500 ppm [5] [%]	control value [6] [%]	control value [7] [%]	death rate [8] [%]
CCSc1cccnc1-c1nc2cc([S+]([O-])C(F)(F)F)ccc2o1 (centres unmarked) [present compound 1-63, 2-(3-ethylsulfanylpyridine-2-yl)-5-(trifluoromethylsulfinyl)benzoxazole]	≥ 90	≥ 90	≥ 80	100				
CCSc1cc(C(F)(F)F)cnc1-c1nc2cc([S+]([O-])C(F)(F)F)cnc2o1 (centres unmarked) [present compound 1-65, 2-(3-ethylsulfanyl-5-trifluoromethylpyridine-2-yl)-6-(trifluoromethylsulfinyl)oxazolo[5,4-b]pyridine]	≥ 90							
CCS(=O)(=O)c1ccc[n+]([O-])c1-c1nc2cc(S(=O)(=O)C(F)(F)F)ccc2o1 [present compound 1-76]	≥ 90	≥ 90	≥ 80		≥ 90			
CCS(=O)(=O)c1cccnc1-c1nc2cc(SC(F)(F)F)ccc2o1 [present compound 1-8, 2-(3-ethylsulfonylpyridin-2-yl)-5-(trifluoromethylsulfanyl)benzoxazole]	≥ 90	≥ 90	≥ 80	100	≥ 90	100	100	
CCS(=O)(=O)c1cc(C(F)(F)F)cnc1-c1nc2cc(SC(F)(F)F)ccc2o1 [present compound 1-18, 2-(3-ethylsulfonyl-5-trifluoromethylpyridine-2-yl)-5-(trifluoromethylsulfanyl)benzoxazole]	≥ 90		≥ 80		≥ 90			
CCS(=O)(=O)c1cc(C(F)(F)F)cnc1-c1nc2cc([S+]([O-])C(F)(F)F)ccc2o1 (centres unmarked) [present compound 1-19, 2-(3-ethylsulfonyl-5-trifluoromethylpyridine-2-yl)-5-(trifluoromethylsulfinyl)benzoxazole]	≥ 90	≥ 90	≥ 80		≥ 90			100
CCS(=O)(=O)c1cc(C(F)(F)F)cnc1-c1nc2cc(S(=O)(=O)C(F)(F)F)ccc2o1 [present compound 1-20, 2-(3-ethylsulfonyl-5-trifluoromethylpyridine-2-yl)-5-(trifluoromethylsulfonyl)benzoxazole]	≥ 90		≥ 80					
CCS(=O)(=O)c1cccnc1-c1nc2cc(S(=O)(=O)C(F)(F)F)cnc2o1 [present compound 1-5, 2-(3-ethylsulfonylpyridin-2-yl)-6-(trifluoromethylsulfonyl)oxazolo[5,4-b]pyridine]	≥ 90		≥ 80					
CCSc1cc(C(F)(F)F)cnc1-c1nc2cc(SC(F)(F)F)ccc2o1 [present compound 1-16, 2-(3-ethylsulfanyl-5-trifluoromethylpyridine-2-yl)-5-(trifluoromethylsulfanyl)benzoxazole]			≥ 80					
CCS(=O)(=O)c1cccnc1-c1nc2cc([S+]([O-])C(F)(F)F)ccc2o1 (centres unmarked) [present compound 1-9, 2-(3-ethylsulfonylpyridin-2-yl)-5-(trifluoromethylsulfinyl)benzoxazole]	≥ 90	≥ 90	≥ 80	100	≥ 90	100	100	100
CCS(=O)(=O)c1cccnc1-c1nc2cc(S(=O)(=O)C(F)(F)F)ccc2o1 [present compound 1-10, 2-(3-ethylsulfonylpyridin-2-yl)-5-(trifluoromethylsulfonyl)benzoxazole]	≥ 90	≥ 90	≥ 80	100	≥ 90	100	100	
CCSc1cccnc1-c1nc2cc(SC(F)(F)F)ccc2o1 [present compound 1-6, 2-(3-ethylsulfanylpyridine-2-yl)-5-(trifluoromethylsulfanyl)benzoxazole]	≥ 90	≥ 90	≥ 80	100	≥ 90	100	100	
CCS(=O)(=O)c1cccnc1-c1nc2cc([S+]([O-])C(F)(F)F)cnc2o1 (centres unmarked) [present compound 1-4, 2-(3-ethylsulfonylpyridin-2-yl)-6-(trifluoromethylsulfinyl)oxazolo[5,4-b]pyridine]	≥ 90	≥ 90	≥ 80	100	≥ 90			
